Results taken from US9512117B2 (priority 2010, dated 2016).

What was measured:
[1] = logP by HPLC on reversed-phase columns (C 18), EEC directive 79/831 Annex V.A8; type: physicochemical; details: LC-MS; for Log P [a] / chromatographic logP: acidic range, pH 2.7, 0.1% aqueous formic acid and acetonitrile; for Log P [b]: neutral range, pH 7.8, 0.001 molar aqueous ammonium hydrogencarbonate and acetonitrile; for chromatographic logP: reversed-phase HPLC column (C18), read-out: Log P [a]
Method: The logP values were measured according to EEC directive 79/831 Annex V.A8 by HPLC (High Performance Liquid Chromatography) on reversed-phase columns (C 18), using the methods below:
^[a] The LC-MS determination in the acidic range is effected at pH 2.7 with 0.1% aqueous formic acid and acetonitrile (contains 0.1% formic acid) as eluents; linear gradient from 10% acetonitrile to 95% acetonitrile.
^[b] The LC-MS determination in the neutral range is effected at pH 7.8 using 0.001 molar aqueous ammonium hydrogencarbonate solution and acetonitrile as eluents; linear gradient from 10% acetonitrile to 95% acetonitrile.
The calibration is effected with unbranched alkan-2-ones (having 3 to 16 carbon atoms) with known logP values (logP values determined on the basis of the retention times by linear interpolation between two successive alkanones).

[2] = test system: Phytophthora infestans; type: in vivo; details: young tomato plants, protective spray, 100 ppm active ingredient, evaluation 7 days after inoculation; 0% = control, 100% = no infection
[3] = test system: Plasmopara viticola; assay: Plasmopara test (grapevine) / protective; type: in vivo; details: young grapevine plants, protective spray, 10 ppm active ingredient, evaluation 6 days after inoculation; 0% = control, 100% = no infection
Method: Plasmopara Test (Grapevine)/Protective
• Solvent: 24.5 parts by weight of acetone • 24.5 parts by weight of dimethylacetamide • Emulsifier: 1 part by weight of alkylaryl polyglycol ether
To produce a suitable active ingredient formulation, 1 part by weight of active ingredient is mixed with the stated amounts of solvent and emulsifier, and the concentrate is diluted with water to the desired concentration.
To test for protective efficacy, young plants are sprayed with the active ingredient formulation at the stated application rate. After the spray coating has dried on, the plants are inoculated with an aqueous spore suspension of Plasmopara viticola and then remain in an incubation cabin at approx. 20° C. and 100% relative air humidity for 1 day. Subsequently, the plants are placed in a greenhouse at approx. 21° C. and approx. 90% air humidity for 4 days. The plants are then moistened and placed in an incubation cabin for 1 day.
Evaluation follows 6 days after the inoculation. 0% means an efficacy which corresponds to that of the control, whereas an efficacy of 100% means that no infection is observed.
In this test, the following inventive compounds show, at an active ingredient concentration of 10 ppm, an efficacy of 70% or more: […]

With `C=CCOc1cccc(Cl)c1C1CC(c2csc(C3CCN(C(=O)Nc4cc(C)ccc4C)CC3)n2)=NO1` (racemic) [Ex. 42] the “Log P [a]” value [1] was 3.98[a];, the “Log P [b]” value [1] was 3.91[b] and the Eff. % [2] was 94%. For the same compound, the Eff. % [3] was 96%.
For `CS(=O)(=O)Nc1ccccc1C1CC(c2csc(C3CCN(C(=O)Nc4cc(C(F)F)ccc4C(F)F)CC3)n2)=NO1` (centres unmarked) [Ex. 6, N-[2,5-Bis(difluoromethyl)phenyl]-4-[4-(5-{2-[(methylsulphonyl)amino]phenyl}-4,5-dihydro-1,2-oxazol-3-yl)-1,3-thiazol-2-yl]piperidine-1-carboxamide], the chromatographic logP [1] was 2.72, the Eff. % [2] was 95% and the Eff. % [3] was 98%.
For `C=CCOc1cccc(F)c1C1CC(c2csc(C3CCN(C(=O)Cn4nc(C(F)(F)F)cc4C)CC3)n2)=NO1` (racemic) [Ex. 51], the “Log P [a]” value [1] was 3.7[a];, the “Log P [b]” value [1] was 3.61[b] and the Eff. % [2] was 85%. For the same compound, the Eff. % [3] was 100%.
For `Cc1cc(C(F)(F)F)nn1CC(=O)N1CCC(c2nc(C3=NOC(c4cccc(OC(=O)C5CC5)c4)C3)cs2)CC1` (racemic) [Ex. 40], the “Log P [a]” value [1] was 3.53[a];, the “Log P [b]” value [1] was 3.47[b] and the Eff. % [2] was 100%. The Eff. % [3] was 85%.
With `Cc1cc(C(F)(F)F)nn1CC(=O)N1CCC(c2nc(C3=NOC(c4c(F)cccc4C=O)C3)cs2)CC1` (racemic) [Ex. 53] the “Log P [a]” value [1] was 3.03[a];, the “Log P [b]” value [1] was 2.95[b] and the Eff. % [2] was 98%. For the same compound, the Eff. % [3] was 100%.
With `C=CCOc1ccccc1C1CC(c2csc(C3CCN(C(=O)Cn4nc(C(F)(F)F)cc4C)CC3)n2)=NO1` (centres unmarked) [Ex. 30] the “Log P [a]” value [1] was 3.86[a];, the “Log P [b]” value [1] was 3.73[b] and the Eff. % [2] was 97%. It also gave an Eff. % [3] of 100%.
With `Cc1cc(C(F)(F)F)nn1CC(=O)N1CCC(c2nc(C3=NOC(c4ccccc4CS(C)(=O)=O)C3)cs2)CC1` (racemic) [Ex. 34] the “Log P [a]” value [1] was 2.6[a], the Eff. % [2] was 100% and the Eff. % [3] was 84%.
In the case of `Cc1cc(C(F)(F)F)nn1CC(=O)N1CCC(c2nc(C3=NOC(c4ccccc4OC(=O)C4CC4)C3)cs2)CC1` (racemic) [Ex. 56], the “Log P [a]” value [1] is reported as 3.52[a];, the “Log P [b]” value [1] is reported as 3.41[b] and the Eff. % [2] is reported as 89%. For the same compound, the Eff. % [3] was 98%.
With `C#CCOc1ccccc1C1CC(c2csc(C3CCN(C(=O)Cn4nc(C)cc4C(F)F)CC3)n2)=NO1` (centres unmarked) [Ex. 29] the “Log P [a]” value [1] was 3.03[a], the Eff. % [2] was 100% and the Eff. % [3] was 100%.
Compound `CS(=O)(=O)Nc1ccccc1C1CC(c2csc(C3CCN(C(=O)Cc4cc(C(F)F)ccc4C(F)F)CC3)n2)=NO1` (centres unmarked) [Ex. 4, N-(2-{3-[2-(1-{[2,5-Bis(difluoromethyl)phenyl]acetyl}piperidin-4-yl)-1,3-thiazol-4-yl]-4,5-dihydro-1,2-oxazol-5-yl}phenyl)methanesulphonamide] has a chromatographic logP [1] of 2.81, an Eff. % [2] of 95% and an Eff. % [3] of 95%.
For `C=CCOc1cccc(F)c1C1CC(c2csc(C3CCN(C(=O)Nc4cc(C)ccc4C)CC3)n2)=NO1` (centres unmarked) [Ex. 25], the “Log P [a]” value [1] was 3.64[a];, the “Log P [b]” value [1] was 3.62[b] and the Eff. % [2] was 100%. It also gave an Eff. % [3] of 100%.
For `C#CCOc1ccccc1C1CC(c2csc(C3CCN(C(=O)Cn4nc(C(F)(F)F)cc4C)CC3)n2)=NO1` (centres unmarked) [Ex. 13], the “Log P [a]” value [1] was 3.47[a];, the “Log P [b]” value [1] was 3.37[b] and the Eff. % [2] was 89%. For the same compound, the Eff. % [3] was 100%.
With `Cc1ccc(Cl)cc1NC(=O)N1CCC(c2nc(C3=NOC(c4cccc(C=O)c4)C3)cs2)CC1` (centres unmarked) [Ex. 2] the “Log P [a]” value [1] was 3.05[a], the Eff. % [2] was 100% and the Eff. % [3] was 100%.
In the case of `C#CCOc1cccc(F)c1C1CC(c2csc(C3CCN(C(=O)Cn4nc(C(F)(F)F)cc4C)CC3)n2)=NO1` (centres unmarked) [Ex. 12], the “Log P [a]” value [1] is reported as 3.35[a];, the “Log P [b]” value [1] is reported as 3.27[b] and the Eff. % [2] is reported as 75%. For the same compound, the Eff. % [3] was 100%.
In the case of `C=CCOc1cccc(Cl)c1C1CC(c2csc(C3CCN(C(=O)Cn4nc(C(F)(F)F)cc4C)CC3)n2)=NO1` (racemic) [Ex. 50], the “Log P [a]” value [1] is reported as 3.94[a];, the “Log P [b]” value [1] is reported as 3.83[b] and the Eff. % [2] is reported as 70%. For the same compound, the Eff. % [3] was 100%.
In the case of `COCCOc1cccc(F)c1C1CC(c2csc(C3CCN(C(=O)Cn4nc(C(F)(F)F)cc4C)CC3)n2)=NO1` (racemic) [Ex. 49], the “Log P [a]” value [1] is reported as 3.28[a];, the “Log P [b]” value [1] is reported as 3.17[b] and the Eff. % [2] is reported as 90%. The Eff. % [3] was 100%.
